Test results reported in patent US6686394B1, “Aryl-chloro-ethyl ureas” (Sovar, Societe en Commandite, priority 1999, dated 2004).

Tests used:
Caco-2 [1] = assay: Cytotoxicity assay C50/G50, MTT or resazurin (Example 16); type: cell-based; details: for IC50: Homo sapiens, day-3, read-out: G50 (concentration inhibiting cell growth by 50%); for C50 (concentration needed to kill 50% of the cellular population present at the beginning): day-3
Method: (§1) Cell culture. Tumor cell lines (B16-F0, Caco-2, DU-145, HT-29, MDA-MB-231 and other cell lines described so far in the patent application) were obtained from the American Type Culture Collection (ATCC HTB-26; Bethesda, Md.). Cells were grown in RPMI 1640 medium supplemented with 10% fetal bovine serum (Hyclone, Road Logan, Utah) and were cultured in a humidified atmosphere at 37° C. in 5% CO2.
(§2) Drugs: All drugs were dissolved in DMSO and the final concentration of DMSO in the culture medium was maintained at 0.5% (v/v).
(§3) Cytotoxiciy assays. At day-1, tumor cells in suspension in 100 μl were plated in microtiter plates (96 wells). On day-0, tumor cells were treated by addition of escalating concentrations of the drug (100 μl solution). On that day, the number of living cells was determined in wells that were untreated. This was performed in order to be able to evaluate the toxic concentration of the drug needed to kill 50% of the cellular population present at the beginning of the experiments. This value is represented by C50 in the table. At day-3, the number of living cells is determined using either MTT or resazurin assays. Growth inhibition activity of these compounds was expressed as the concentration of CAU inhibiting cell growth by 50% G50 in the following table
(§4) The MTT assay was as described above in Example 1. The Resazurin assay was performed as follows:
(§5) Aspirate the supernatant (cell suspension: centrifuge first)
(§6) Add 100 μL NaCl 0.9% (saline)
(§7) Add 50 μL RZ (resazurin 125 μg/ml/PBS: RPMI without FBS; 1:4) Incubate at 37° C.
(§8) Collect fluorescence data at different time.

B16-F0 [2] = assay: as above; type: cell-based; details: for IC50: Mus musculus, B16F0, day-3, read-out: G50 (concentration inhibiting cell growth by 50%); for C50 (concentration needed to kill 50% of the cellular population present at the beginning): day-3
Method: as §1, §2, §3, §4, §5, §6, §7, §8

DU-145 [3] = assay: as above; type: cell-based; details: for IC50: Homo sapiens, day-3, read-out: G50 (concentration inhibiting cell growth by 50%); for C50 (concentration needed to kill 50% of the cellular population present at the beginning): day-3
Method: as §1, §2, §3, §4, §5, §6, §7, §8

MDA-MB-231 [4] = assay: as above; type: cell-based, human; details: for IC50: Homo sapiens, day-3, read-out: G50 (concentration inhibiting cell growth by 50%); for C50 (concentration needed to kill 50% of the cellular population present at the beginning): day-3
Method: as §1, §2, §3, §4, §5, §6, §7, §8

HT-29 [5] = assay: as above; type: cell-based, human; details: for IC50: Homo sapiens, day-3, read-out: G50 (concentration inhibiting cell growth by 50%); for C50 (concentration needed to kill 50% of the cellular population present at the beginning): day-3
Method: as §1, §2, §3, §4, §5, §6, §7, §8

Caco-2 [6] = assay: Cytotoxicity assay G50, MTT or resazurin (Example 29); type: cell-based; details: Homo sapiens; cell line Caco-2
Method: as §1, §2
as §3, with “The” for “This was performed in order to be able to evaluate the toxic concentration of the drug needed to kill 50% of the cellular population present at the beginning of the experiments. This value is represented by C50 in the table. At day-3, the”
as §4, §5, §6
(§9) Add 50 μL RZ (resazurin 125 μg/ml/PBS: RPMI without FBS; 1:4)
as §8

B16-F0 [7] = assay: as above; type: cell-based; details: Mus musculus, B16F0; cell line B16-F0
Method: as §1, §2
as §3, with “The” for “This was performed in order to be able to evaluate the toxic concentration of the drug needed to kill 50% of the cellular population present at the beginning of the experiments. This value is represented by C50 in the table. At day-3, the”
as §4, §5, §6, §9, §8

MDA-MB-231 [8] = assay: as above; type: cell-based; details: Homo sapiens; cell line MDA-MB-231
Method: as §1, §2
as §3, with “The” for “This was performed in order to be able to evaluate the toxic concentration of the drug needed to kill 50% of the cellular population present at the beginning of the experiments. This value is represented by C50 in the table. At day-3, the”
as §4, §5, §6, §9, §8

HT-29 [9] = assay: as above; type: cell-based; details: Homo sapiens; cell line HT-29
Method: as §1, §2
as §3, with “The” for “This was performed in order to be able to evaluate the toxic concentration of the drug needed to kill 50% of the cellular population present at the beginning of the experiments. This value is represented by C50 in the table. At day-3, the”
as §4, §5, §6, §9, §8

DU-145 [10] = assay: as above; type: cell-based; details: Homo sapiens; cell line DU-145
Method: as §1, §2
as §3, with “The” for “This was performed in order to be able to evaluate the toxic concentration of the drug needed to kill 50% of the cellular population present at the beginning of the experiments. This value is represented by C50 in the table. At day-3, the”
as §4, §5, §6, §9, §8

MCF-7 = assay: as above; type: cell-based; details: Homo sapiens, MCF7; cell line MCF-7
Method: as §4, §5, §6, §9, §8

K562 = assay: as above; type: cell-based; details: Homo sapiens; cell line K562
Method: as §4, §5, §6, §9, §8

L1210 = assay: as above; type: cell-based; details: Mus musculus; cell line L1210
Method: as §4, §5, §6, §9, §8

T24 = assay: as above; type: cell-based; details: Homo sapiens, T-24; cell line T24
Method: as §4, §5, §6, §9, §8

CHO = assay: as above; type: cell-based, Chinese Hamster; details: Cricetulus griseus; cell line CHO
Method: as §4, §5, §6, §9, §8

Row | Compound | IC50 (Caco-2 [1]) | C50 (concentration needed to kill 50% of the cellular population present at the beginning) (Caco-2 [1]) | IC50 (B16-F0 [2]) | C50 (concentration needed to kill 50% of the cellular population present at the beginning) (B16-F0 [2]) | IC50 (DU-145 [3]) | C50 (concentration needed to kill 50% of the cellular population present at the beginning) (DU-145 [3]) | IC50 (MDA-MB-231 [4]) | C50 (concentration needed to kill 50% of the cellular population present at the beginning) (MDA-MB-231 [4]) | IC50 (HT-29 [5]) | C50 (concentration needed to kill 50% of the cellular population present at the beginning) (HT-29 [5]) | IC50 (Caco-2 [6]) | IC50 (B16-F0 [7]) | IC50 (MDA-MB-231 [8]) | IC50 (HT-29 [9]) | IC50 (DU-145 [10]) | IC50 (MCF-7) | IC50 (K562) | IC50 (L1210) | IC50 (T24) | IC50 (CHO)
1 | C[C@@H](CCl)NC(=O)Nc1ccc(C2CCCCC2)cc1 [Example 8] | 15.4 µM | 20.3 µM | 21.8 µM | 22.1 µM | 8.6 µM | 25.2 µM | 27.6 µM | 42.3 µM | 17.1 µM | 23.9 µM |  |  |  |  |  |  |  |  |  | 
2 | CC[C@H](CCl)NC(=O)Nc1ccc(OC)c(OC)c1 [Example 20] |  |  |  |  |  |  |  |  |  |  | > 100 µM | > 100 µM | > 100 µM | > 100 µM | > 100 µM | > 100 µM | > 100 µM | > 100 µM | > 100 µM | > 100 µM
3 | CCCCCCCc1ccc(NC(=O)N[C@@H](C)CCl)cc1 [Example 22] |  |  |  |  |  |  |  |  |  |  | 7.61 µM | 6.6 µM | 8.33 µM | 7.69 µM | 7.46 µM | 5.56 µM | 6.96 µM | 7.48 µM | 6.15 µM | 3.8 µM
4 | CCCCCCOc1ccc(NC(=O)N[C@@H](CC)CCl)cc1 [Example 28] |  |  |  |  |  |  |  |  |  |  | 9.5 µM | 8.26 µM | 8.75 µM | 8.12 µM | 9.46 µM | 10.4 µM | 3.88 µM | 7.42 µM | 7.16 µM | 3.28 µM
5 | CC[C@@H](CCl)NC(=O)Nc1ccc(C2CCCCC2)cc1 [Example 13] | 9.9 µM | 15.6 µM | 15.5 µM | 17.7 µM | 6.9 µM | 16.2 µM | 16.3 µM | 32.5 µM | 9.8 µM | 16.3 µM |  |  |  |  |  |  |  |  |  | 
6 | CCCCCCc1ccc(NC(=O)N[C@@H](C)CCl)cc1 [Example 7] | 12.6 µM | 21.1 µM | 16.3 µM | 18.2 µM | 6.3 µM | 11.8 µM | 11.7 µM | 31.9 µM | 5.1 µM | 12.8 µM |  |  |  |  |  |  |  |  |  | 
7 | CCCCCCCc1ccc(NC(=O)N[C@@H](CC)CCl)cc1 [Example 23] |  |  |  |  |  |  |  |  |  |  | 6.32 µM | 4.77 µM | 6.12 µM | 5.01 µM | 4.89 µM | 4.2 µM | 3.59 µM | 5.67 µM | 3.93 µM | 4.2 µM
8 | CCCCCCCc1ccc(NC(=O)N[C@H](CC)CCl)cc1 [Example 24] |  |  |  |  |  |  |  |  |  |  | 4.85 µM | 3.74 µM | 5.17 µM | 2.94 µM | 4.02 µM | 3.78 µM | 2.9 µM | 4.04 µM | 3.61 µM | 3.14 µM
9 | COc1ccc(NC(=O)N[C@H](C)CCl)cc1OC [Example 17] |  |  |  |  |  |  |  |  |  |  | > 100 µM | 26.4 µM | 43.6 µM | 14.8 µM | 34.9 µM | 25.1 µM | 9.62 µM | 10.3 µM | 12.4 µM | 32.2 µM
10 | CC[C@@H](CCl)NC(=O)Nc1ccc(OC)c(OC)c1 [Example 19] |  |  |  |  |  |  |  |  |  |  | > 100 µM | > 100 µM | > 100 µM | > 100 µM | > 100 µM | > 100 µM | > 100 µM | > 100 µM | > 100 µM | > 100 µM
11 | COc1ccc(NC(=O)N[C@@H](C)CCl)cc1OC [Example 18] |  |  |  |  |  |  |  |  |  |  | > 100 µM | > 100 µM | > 100 µM | > 100 µM | > 100 µM | > 100 µM | > 100 µM | > 100 µM | > 100 µM | > 100 µM
12 | CCCCCCc1ccc(NC(=O)N[C@@H](CC)CCl)cc1 [Example 11] | 7.5 µM | 10.9 µM | 14.1 µM | 18.3 µM | 4.6 µM | 15.8 µM | 15.1 µM | 30.1 µM | 13.1 µM | 20.8 µM |  |  |  |  |  |  |  |  |  | 
13 | CC[C@H](CCl)NC(=O)Nc1ccc(C2CCCCC2)cc1 [Example 12] | 10 µM | 17.7 µM | 17.3 µM | 21.5 µM | 7.3 µM | 22.2 µM | 19.6 µM | 40.3 µM | 13.6 µM | 22.8 µM |  |  |  |  |  |  |  |  |  | 
14 | CCCCCCc1ccc(NC(=O)NC(CCl)CCC)cc1 (racemic) [Example 14] | 12.7 µM | 21.1 µM | 15.8 µM | 21.3 µM | 10.9 µM | 19.6 µM | 18.9 µM | 32.3 µM | 10.7 µM | 20.3 µM |  |  |  |  |  |  |  |  |  | 
15 | CCCCCCc1ccc(NC(=O)N[C@H](CC)CCl)cc1 [Example 10] | 10.2 µM | 13.7 µM | 18.8 µM | 24.9 µM | 7.4 µM | 27.2 µM | 18 µM | 40.6 µM | 20.8 µM | 36.8 µM |  |  |  |  |  |  |  |  |  | 
16 | CCCCCCc1ccc(NC(=O)N[C@H](C)CCl)cc1 [Example 6] | 35.8 µM | 44.2 µM | 26.3 µM | 31.3 µM | 18.9 µM | 39.5 µM | 31.5 µM | 43.3 µM | 32.3 µM | 44.5 µM |  |  |  |  |  |  |  |  |  | 
17 | C[C@H](CCl)NC(=O)Nc1ccc(C2CCCCC2)cc1 [Example 9] | 8.6 µM | 14.7 µM | 15.4 µM | 17.4 µM | 7.8 µM | 27.6 µM | 27.5 µM | 42.9 µM | 19 µM | 28.1 µM |  |  |  |  |  |  |  |  |  | 
